Patent US11155560B2, “Substituted pyrazolo[1,5-a]pyrimidines for modulating CDK9 activity” (Kronos Bio, Inc., priority 2018, dated 2021)

molecular target: CDK9/cyclin T1 (Homo sapiens, UniProt P50750); assay: CDK9/cyclin T1 inhibition, radiometric assay; format: biochemical; conditions: radiometric assay, reaction time 60 minutes, 10 μM ATP, 10-dose IC50; compounds 1-34 and control Staurosporine; read-out: CDK9/cyclin T1 Potency Grade
Description: Exemplary compounds of the invention (1-34) were tested for inhibition of CDK9/cyclin T1. […] Reactions were carried out at 10 μM ATP. Data was normalized to positive and negative controls and curve fits were executed with GraphPad software and were performed where the enzyme activities at the highest concentration of compounds were less than 65%.

Chain of CDK9/cyclin T1 (P50750 whole entry): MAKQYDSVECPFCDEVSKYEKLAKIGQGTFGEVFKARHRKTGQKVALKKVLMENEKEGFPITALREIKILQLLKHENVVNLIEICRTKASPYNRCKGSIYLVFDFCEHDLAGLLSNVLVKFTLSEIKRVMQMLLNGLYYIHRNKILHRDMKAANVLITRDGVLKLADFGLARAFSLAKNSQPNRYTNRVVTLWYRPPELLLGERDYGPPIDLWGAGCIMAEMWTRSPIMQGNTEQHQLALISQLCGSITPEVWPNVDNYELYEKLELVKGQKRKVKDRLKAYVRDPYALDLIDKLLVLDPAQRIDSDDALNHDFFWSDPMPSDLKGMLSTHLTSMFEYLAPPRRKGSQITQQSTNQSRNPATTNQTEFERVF
Chain of CDK9/cyclin T1 (O60563 whole entry partner): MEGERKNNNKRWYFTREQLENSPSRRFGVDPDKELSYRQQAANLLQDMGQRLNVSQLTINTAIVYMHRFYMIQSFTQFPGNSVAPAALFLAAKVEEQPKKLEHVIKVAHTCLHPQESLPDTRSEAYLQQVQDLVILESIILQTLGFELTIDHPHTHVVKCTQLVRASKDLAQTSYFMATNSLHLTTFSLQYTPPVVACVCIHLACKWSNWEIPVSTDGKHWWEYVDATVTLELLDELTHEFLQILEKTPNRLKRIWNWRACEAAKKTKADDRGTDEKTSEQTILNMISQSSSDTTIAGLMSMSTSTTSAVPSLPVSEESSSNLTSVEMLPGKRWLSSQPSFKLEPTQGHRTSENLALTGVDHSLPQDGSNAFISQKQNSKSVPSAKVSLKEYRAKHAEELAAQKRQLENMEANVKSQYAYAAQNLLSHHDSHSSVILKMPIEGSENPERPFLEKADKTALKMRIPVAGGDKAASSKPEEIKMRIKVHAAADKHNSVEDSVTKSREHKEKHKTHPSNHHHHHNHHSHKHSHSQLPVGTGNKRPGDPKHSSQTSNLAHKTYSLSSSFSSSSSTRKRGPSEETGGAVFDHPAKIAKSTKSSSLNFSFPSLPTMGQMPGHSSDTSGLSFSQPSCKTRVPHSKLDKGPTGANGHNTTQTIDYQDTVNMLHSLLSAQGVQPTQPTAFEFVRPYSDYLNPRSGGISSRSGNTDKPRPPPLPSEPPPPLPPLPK

Structure (SMILES)	IC50 [nM]
N[C@@H]1CC[C@@H](Nc2cc(C3CC3)nc3ccnn23)C1 [Compound 32, [(1R,3R)-3-[(5-cycloproylpyrazolo[1,5-a]pyrimidin-7-yl)amino]cyclopentyl]ammonium; 2,2,2-trifluoroacetate]	1 to 500

same assay, conditions: read-out: CDK9/cyclin T1 Potency Grade

Structure (SMILES)	IC50 [nM]
Cc1cc(N[C@H]2CC[C@@H](N)C2)n2nccc2n1 [Compound 12, [(1R,3S)-3-[(5-methylpyrazolo[1,5-a]pyrimidin-4-ium-7-yl)amino]cyclopentyl]ammonium dichloride]	501 to 1000
CCc1cc(N[C@@H]2CC[C@@H](N)C2)n2nccc2n1 [Compound 25, (1R,3R)—N3-(5-ethylpyrazolo[1,5-a]pyrimidin-7-yl)cyclopentane-1,3-diamine]	501 to 1000
CC(C)c1cc(N[C@@H]2CCOC2)n2nccc2n1 [Compound 30, 5-isopropyl-N-[(3R)-tetrahydrofuran-3-yl]pyrazolo[1,5-a]pyrimidin-7-amine]	> 1000
Cc1cc(N[C@H]2CC[C@H](N)C2)n2nccc2n1 [Compound 24, (1S,3S)—N3-(5-methylpyrazolo[1,5-a]pyrimidin-7-yl)cyclopentane-1,3-diamine]	501 to 1000
Cc1cc(N[C@H]2C[C@H](N)C2)n2nccc2n1 [Compound 11, [3-[(5-methylpyrazolo[1,5-a]pyrimidin-4-ium-7-yl)amino]cyclobutyl]ammonium dichloride]	501 to 1000
CC(=O)Nc1cc(N[C@@H]2CC[C@@H](N)C2)n2nccc2n1 [Compound 34, [(1R,3R)-3-[(5-acetamidopyrazolo[1,5-a]pyrimidin-7-yl)amino]cyclopentyl]ammonium; 2,2,2-trifluoroacetate]	> 1000
Cc1cc(N[C@H]2CC[C@H](N)CC2)n2nccc2n1 [Compound 4, [4-[(5-methylpyrazolo[1,5-a]pyrimidin-4-ium-7-yl)amino]cyclohexyl]ammonium dichloride]	501 to 1000
N[C@H]1CC[C@@H](Nc2cc(C3CCCC3)nc3ccnn23)C1 [Compound 15, (1 S,3R)—N3-(5-cyclopentylpyrazolo[1,5-a]pyrimidin-7-yl)cyclopentane-1,3-diamine]	1 to 500
N[C@H]1CC[C@H](Nc2cc(C3CCCC3)nc3ccnn23)CC1 [Compound 8, [4-[(5-cyclopentylpyrazolo[1,5-a]pyrimidin-4-ium-7-yl)amino]cyclohexyl]ammonium dichloride]	1 to 500
Cc1cc(NC2CCCC2)n2nccc2n1 [Compound 1, N-cyclopentyl-5-methyl-pyrazolo[1,5-a]pyrimidin-7-amine]	> 1000
CCC(C)c1cc(NC2CCCC2)n2nccc2n1 (centres unmarked) [Compound 3, N-cyclopentyl-5-sec-butyl-pyrazolo[1,5-a]pyrimidin-7-amine]	1 to 500
Cc1cc(N[C@@H]2CC[C@H](N)C2)n2nccc2n1 [Compound 10, [(1S,3R)-3-[(5-methylpyrazolo[1,5-a]pyrimidin-4-ium-7-yl)amino]cyclopentyl]ammonium dichloride]	> 1000

More lines, now with the values ahead:

IC50 [nM]	Structure (SMILES)
1 to 500	c1cc2nc(C3CCCC3)cc(NC3CCCC3)n2n1 [Compound 5, N,5-dicyclopentylpyrazolo[1,5-a]pyrimidin-7-amine]
1 to 500	CCc1cc(N[C@H]2CC[C@H](N)C2)n2nccc2n1 [Compound 28, (1S,3S)-N3-(5-ethylpyrazolo[1,5-a]pyrimidin-7-yl)cyclopentane-1,3-diamine]
1 to 500	N[C@H]1CC[C@H](Nc2cc(C3CCCC3)nc3ccnn23)C1 [Compound 9, [(1S,3S)-3-[(5-cyclopentylpyrazolo[1,5-a]pyrimidin-4-ium-7-yl)amino]cyclopentyl]ammonium dichloride]
1 to 500	CC(C)c1cc(NC2CCCC2)n2nccc2n1 [Compound 2, N-cyclopentyl-5-isopropyl-pyrazolo[1,5-a]pyrimidin-7-amine]
1 to 500	N[C@@H]1CC[C@H](Nc2cc(C3CCCC3)nc3ccnn23)C1 [Compound 23, (1R,3S)—N3-(5-cyclopentylpyrazolo[1,5-a]pyrimidin-7-yl)cyclopentane-1,3-diamine]
1 to 500	CCC(C)c1cc(N[C@H]2CC[C@H](N)CC2)n2nccc2n1 (some centres unmarked) [Compound 7, [4-[(5-sec-butylpyrazolo[1,5-a]pyrimidin-4-ium-7-yl)amino]cyclohexyl]ammonium dichloride]
1 to 500	CCC(C)c1cc(N[C@H]2C[C@H](N)C2)n2nccc2n1 (some centres unmarked) [Compound 19, N1-(5-sec-butylpyrazolo[1,5-a]pyrimidin-7-yl)cyclobutane-1,3-diamine]
1 to 500	N[C@H]1C[C@H](Nc2cc(C3CCCC3)nc3ccnn23)C1 [Compound 20, N1-(5-cyclopentylpyrazolo[1,5-a]pyrimidin-7-yl)cyclobutane-1,3-diamine]
1 to 500	CC(=O)Nc1cc(N[C@@H]2CC[C@@H](N)C2)n2ncc(Cl)c2n1 [Compound 33, [(1R,3R)-3-[(5-acetamido-3-chloro-pyrazolo[1,5-a]pyrimidin-7-yl)amino]cyclopentyl]ammonium; 2,2,2-trifluoroacetate]
1 to 500	CC(C)c1cc(NC2CCCCC2)n2nccc2n1 [Compound 29, N-cyclohexyl-5-isopropyl-pyrazolo[1,5-a]pyrimidin-7-amine]
